According to patent US20260209234A1, “SUBSTITUTED DIHYDROPYRROLO[3,4-D]PYRIMIDINE COMPOUNDS AND THEIR USE IN TREATING MEDICAL CONDITIONS” (Karuna Therapeutics, Inc., priority 2022, published 2026):

Legend:
rM4 receptors = target: T1, rM4 receptors (Rattus norvegicus, UniProt P08485); assay: Rat M4 PAM pERK assay; type: cell-based; conditions: CHO cells expressing rM4; EC20 of acetylcholine (10 nM final); TR-FRET
T1 construct: expressed in transfected cells; host or cells: CHO cells
T1 sequence (P08485 1-478): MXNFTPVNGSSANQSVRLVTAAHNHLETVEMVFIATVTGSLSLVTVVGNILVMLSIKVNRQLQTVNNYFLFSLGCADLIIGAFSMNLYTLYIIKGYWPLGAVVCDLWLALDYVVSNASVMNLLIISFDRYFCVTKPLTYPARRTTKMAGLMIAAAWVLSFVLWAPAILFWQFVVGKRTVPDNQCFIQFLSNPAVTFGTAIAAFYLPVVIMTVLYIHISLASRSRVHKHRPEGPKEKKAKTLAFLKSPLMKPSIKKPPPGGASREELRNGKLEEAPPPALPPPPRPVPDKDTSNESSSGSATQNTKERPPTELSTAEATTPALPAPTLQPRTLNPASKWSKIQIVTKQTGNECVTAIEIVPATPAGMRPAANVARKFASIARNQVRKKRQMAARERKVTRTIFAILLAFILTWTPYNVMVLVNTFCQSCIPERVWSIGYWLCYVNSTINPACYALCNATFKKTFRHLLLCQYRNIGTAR

[1] = tested on: Sprague Dawley rats pre-treated with amphetamine; assay: Amphetamine-evoked hyperlocomotion in rats; type: in vivo, rat; conditions: male Sprague Dawley rats; 0.5 mg/kg amphetamine s.c.; open field, distance traveled
Method: Animals: Adult male, Sprague Dawley rats (Envigo, Indianapolis, IN, USA) were housed in a colony maintained at 23° C. with 12 hour light/dark cycles (lights on at 0600 hour). All animals weighed 290-330 g at the beginning of the study and were equally divided into 5 groups (n=8 per group) and received one of the treatment conditions listed below. Animal protocols were approved by an Animal Care and Use Committee.
Behavioral Procedures: Studies were conducted in MedAssociates open field chambers (27.3 cm×27.3 cm×20.3 cm, MedAssociates, St. Albans, VT) in which movement was automatically tracked and recorded by 16 beam arrays. Administration pretreatment of the test article was determined to coincide with Tmax at the time of the amphetamine-evoked session with optimal route of administration. All groups were subcutaneously treated with 0.5 mg/kg amphetamine (AMP). […] Locomotor data (distance traveled) was recorded as 5-minute bins throughout the 90-minute session. […]
Statistical Analysis: Spontaneous locomotion (prior to AMP administration) was calculated as the total distance traveled during the first 30 minutes of the experimental session. AMP-evoked responses were calculated as the total distance traveled during the last 60 minutes of the experimental session which commenced immediately after AMP administration. Locomotor data were analyzed by a one-way ANOVA. […]

hM4 receptors = target: T2, hM4 receptors (Homo sapiens, UniProt P08173); assay: Human M4 PAM pERK assay; type: cell-based; conditions: CHO cells expressing hM4; EC20 of acetylcholine (10 nM final); TR-FRET
T2 construct: expressed in transfected cells; host or cells: CHO cells
T2 sequence (P08173 1-479): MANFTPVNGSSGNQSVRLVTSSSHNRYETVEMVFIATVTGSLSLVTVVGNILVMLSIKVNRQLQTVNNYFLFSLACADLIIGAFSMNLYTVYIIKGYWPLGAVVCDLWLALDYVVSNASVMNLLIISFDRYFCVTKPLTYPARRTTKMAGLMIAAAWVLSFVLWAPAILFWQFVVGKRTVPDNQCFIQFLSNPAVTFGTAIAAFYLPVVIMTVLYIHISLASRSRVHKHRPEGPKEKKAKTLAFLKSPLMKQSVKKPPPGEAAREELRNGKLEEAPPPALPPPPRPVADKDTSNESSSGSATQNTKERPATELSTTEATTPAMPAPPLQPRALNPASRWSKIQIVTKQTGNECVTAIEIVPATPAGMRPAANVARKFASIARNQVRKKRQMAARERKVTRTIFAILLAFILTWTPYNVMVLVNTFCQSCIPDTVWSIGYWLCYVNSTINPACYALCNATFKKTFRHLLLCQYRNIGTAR

| EC50 (rM4 receptors) [nM] | EC50 (hM4 receptors) [nM] | Compound | Dose Amount of Compound at which rats displayed a reduction in amphetamine-evoked hyperlocomotion activity [1] [mg/kg] |
| --- | --- | --- | --- |
| 100 to 500 | ≤ 100 | COc1nc(C#N)nc2c1C(C)N(C(=O)CC1CN(c3ccnc(C(F)(F)F)c3)C1)C2 (single isomer, unassigned) [Compound I-6, 4-Methoxy-5-methyl-6-(2-(1-(2-(trifluoromethyl)pyridin-4-yl)azetidin-3-yl)acetyl)-6,7-dihydro-5H-pyrrolo[3,4-d]pyrimidine-2-carbonitrile] | >32 |
| 100 to 500 | 100 to 500 | COc1nc(C)nc2c1C(C)N(C(=O)CC1CN(c3ccnc(C(F)(F)F)c3)C1)C2 (single isomer, unassigned) [Compound I-52, 1-(4-Methoxy-2,5-dimethyl-5,7-dihydro-6H-pyrrolo[3,4-d]pyrimidin-6-yl)-2-(1-(2-(trifluoromethyl)pyridin-4-yl)azetidin-3-yl)ethan-1-one] | 32 |
